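Compound exposure: 48 hours, 5 concentrations, 96-well plates. Here, GI50 denotes the concentration required for 50% inhibition of growth. TGI: total growth inhibition.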
Columns and labels:
Experiment in all cases: NCI anticancer screen, dose series, 48 h
[1] = test system: NCI-H522 lung
[2] = test system: HOP-92 NSCLC
[3] = test system: IGROV1 ovarian
[4] = test system: U251 CNS
[5] = test system: SK-OV-3 ovarian
[6] = test system: SF-295 CNS
[7] = test system: SF-539 CNS
[8] = test system: SK-MEL-28 melanoma
[9] = test system: DU-145 prostate
[10] = test system: PC-3 prostate

COC(=O)C1Cc2c([nH]c3ccccc23)C=N1 (centres undefined)
TGI [1]: > 100 µM
TGI [2]: > 100 µM
TGI [3]: > 100 µM
TGI [4]: > 100 µM
TGI [5]: > 100 µM
TGI [6]: > 100 µM
TGI [7]: > 100 µM
TGI [8]: > 100 µM

O=C(/C=N/O)c1c(-c2ccccc2)[nH]c(-c2ccccc2)c1-c1ccccc1
TGI [1]: 30.8 µM
TGI [2]: 67.1 µM
TGI [3]: 28.4 µM
TGI [4]: 32.3 µM
TGI [5]: 35.1 µM
TGI [9]: 12.3 µM
TGI [6]: 34.2 µM
TGI [7]: 26.9 µM
TGI [8]: 39 µM

CC1=C(C)C(=O)C(C(C)C2=C(C)C(=O)C(C)=C(C)C2=O)=C(C)C1=O
GI50 [1]: 30.5 µM
TGI [1]: > 100 µM
GI50 [2]: 13.8 µM
TGI [2]: 39.7 µM
GI50 [3]: 48.9 µM
TGI [3]: > 100 µM
GI50 [4]: 21.7 µM
TGI [4]: > 100 µM
GI50 [5]: > 100 µM
TGI [5]: > 100 µM
GI50 [9]: 35.5 µM
TGI [9]: > 100 µM
GI50 [10]: 20.9 µM
TGI [10]: > 100 µM
GI50 [6]: 15.1 µM
TGI [6]: > 100 µM
GI50 [7]: 23.7 µM
TGI [7]: > 100 µM

Cc1cc(Cl)ccc1NC(=O)C1C(=O)N(c2ccc(Cl)cc2C)C(=O)/C1=N\N (centres undefined)
TGI [1]: > 100 µM
TGI [2]: > 100 µM
TGI [3]: > 100 µM
TGI [4]: > 100 µM
TGI [5]: > 100 µM
TGI [6]: > 100 µM
TGI [7]: > 100 µM
TGI [8]: > 100 µM

O=C(/C=C/c1ccccc1F)C(c1ccccc1)c1ccccc1
TGI [1]: 8.29 µM
TGI [2]: 8.72 µM
TGI [3]: 30.7 µM
TGI [4]: 13 µM
TGI [5]: 8.47 µM
TGI [6]: 5.91 µM
TGI [7]: 5.48 µM
TGI [8]: 6.84 µM

N#CC(C#N)=C1NC(=O)C(c2ccccc2)C(=O)N1 (centres undefined)
TGI [1]: > 100 µM
TGI [2]: > 100 µM
TGI [3]: > 100 µM
TGI [4]: > 100 µM
TGI [5]: > 100 µM
TGI [6]: > 100 µM
TGI [7]: > 100 µM

COc1nc2c(nc(N)n2C2OC(CO)C(O)C(O)C2O)c(=O)n1C (centres undefined)
TGI [1]: > 100 µM
TGI [2]: > 100 µM
TGI [3]: > 100 µM
TGI [4]: > 100 µM
TGI [5]: > 100 µM
TGI [6]: > 100 µM
TGI [7]: > 100 µM
TGI [8]: > 100 µM

CCOC(=O)C(=Cc1ccccc1Br)C(=O)OCC
TGI [1]: 4.3 µM
TGI [2]: 7.57 µM
TGI [3]: 4.62 µM
TGI [9]: 2.68 µM
TGI [10]: 14.9 µM
TGI [6]: 8.88 µM
TGI [7]: 8.32 µM
TGI [8]: 5.82 µM

N#C/C(=C/N1CCN(C(=O)c2ccco2)C1=S)C(N)=O
GI50 [1]: 18.7 µM
TGI [1]: 44.2 µM
GI50 [2]: 25.5 µM
TGI [2]: > 100 µM
GI50 [3]: 24 µM
TGI [3]: 86.8 µM
GI50 [4]: 11.5 µM
TGI [4]: 46.8 µM
GI50 [5]: 42.6 µM
TGI [5]: > 100 µM
GI50 [9]: 29.8 µM
TGI [9]: > 100 µM
GI50 [10]: 35.6 µM
TGI [10]: > 100 µM
GI50 [6]: 32.1 µM
TGI [6]: > 100 µM
GI50 [8]: 15.8 µM
TGI [8]: > 100 µM

NS(=O)(=O)c1ccc(-n2nc(-c3ccc(Cl)cc3)cc2C2=CC(=O)C=CC2=O)cc1
GI50 [1]: 31 µM
TGI [1]: 87.2 µM
GI50 [2]: 28 µM
TGI [2]: > 100 µM
GI50 [3]: 39.6 µM
TGI [3]: > 100 µM
GI50 [9]: 23.7 µM
TGI [9]: 87.5 µM
GI50 [10]: 19.4 µM
TGI [10]: 56.2 µM
GI50 [6]: 25.1 µM
TGI [6]: 63.2 µM
GI50 [7]: 21.5 µM
TGI [7]: 45.4 µM

CCCCCCCCCCCCC(Br)C(=O)SCCNC(=O)CCNC(=O)[C@@H](O)C(C)(C)COP(=O)(O)OP(=O)(O)OCC1OC(n2cnc3c(N)ncnc32)C(O)C1OP(=O)(O)O (some centres undefined)
TGI [1]: > 56.5 µM
TGI [2]: > 56.5 µM
TGI [3]: > 56.5 µM
TGI [4]: > 56.5 µM
TGI [5]: > 56.5 µM
TGI [6]: > 56.5 µM
TGI [7]: > 56.5 µM
TGI [8]: > 56.5 µM

COC(=O)/C(C#N)=C1\N=NNN1CCCc1ccccc1
TGI [1]: 52.7 µM
TGI [2]: > 100 µM
TGI [3]: > 100 µM
TGI [4]: > 100 µM
TGI [5]: > 100 µM
TGI [6]: > 100 µM
TGI [7]: > 100 µM
TGI [8]: > 100 µM

CC(CN(CP(=O)([O-])[O-])CP(=O)([O-])[O-])N(CP(=O)([O-])[O-])CP(=O)([O-])[O-].N[C@@H]1CCCC[C@@H]1N.[Pt+2] (centres undefined)
GI50 [1]: > 100 µM
TGI [1]: > 100 µM
GI50 [2]: > 100 µM
TGI [2]: > 100 µM
GI50 [3]: > 100 µM
TGI [3]: > 100 µM
GI50 [4]: > 100 µM
TGI [4]: > 100 µM
GI50 [5]: > 100 µM
TGI [5]: > 100 µM
GI50 [6]: > 100 µM
TGI [6]: > 100 µM
GI50 [7]: > 100 µM
TGI [7]: > 100 µM
GI50 [8]: > 100 µM
TGI [8]: > 100 µM

Cc1cc2c(=O)cc(-c3ccc(Cl)cc3)oc2c(C(=O)O)c1C
TGI [1]: > 100 µM
TGI [3]: > 100 µM
TGI [4]: > 100 µM
TGI [5]: > 100 µM
TGI [6]: > 100 µM
TGI [7]: > 100 µM
TGI [8]: > 100 µM

C/C=C/C1(NS(=O)(=O)c2ccc(C)cc2)CCC(C(C)(C)C)CC1 (centres undefined)
TGI [1]: 26 µM
TGI [2]: 41.6 µM
TGI [3]: 77.2 µM
TGI [4]: 29.5 µM
TGI [5]: 81.5 µM
TGI [6]: 61.4 µM
TGI [7]: 44.1 µM

CCOc1ccc(NC(=O)C2=C(C)NC(C)=C(C(=O)Nc3ccc(OCC)cc3)C2c2ccc([N+](=O)[O-])cc2)cc1
TGI [1]: > 100 µM
TGI [2]: 58.6 µM
TGI [3]: > 100 µM
TGI [4]: > 100 µM
TGI [5]: > 100 µM
TGI [6]: > 100 µM
TGI [7]: > 100 µM
TGI [8]: > 100 µM

C[Si](C)(C)/C(Br)=C\CCN1C(=O)CCC1O (centres undefined)
TGI [1]: > 100 µM
TGI [2]: > 100 µM
TGI [3]: > 100 µM
TGI [4]: > 100 µM
TGI [5]: > 100 µM
TGI [6]: > 100 µM
TGI [7]: > 100 µM
TGI [8]: > 100 µM

CC(C)(C)c1cc(C(O)(C(F)(F)F)C(F)(F)F)c2c(c1)C(C(F)(F)F)(C(F)(F)F)OC(c1ccccc1)(C(C)(C)C)N2 (centres undefined)
TGI [1]: 8.38 µM
TGI [3]: 16.7 µM
TGI [4]: 10.4 µM
TGI [5]: 7.39 µM
TGI [6]: 19.8 µM
TGI [7]: > 100 µM
TGI [8]: 22.1 µM

Cc1ccccc1NC(=O)c1[nH]c(=S)nc(N)c1-c1ccccc1C
TGI [1]: > 100 µM
TGI [2]: > 100 µM
TGI [3]: > 100 µM
TGI [4]: > 100 µM
TGI [5]: > 100 µM
TGI [6]: > 100 µM
TGI [7]: > 100 µM
TGI [8]: > 100 µM

Cc1cc(Cl)ccc1N1C(=O)C(=O)C(c2nc3ccccc3s2)C(=O)C1=O
TGI [1]: > 100 µM
TGI [2]: > 100 µM
TGI [3]: > 100 µM
TGI [4]: > 100 µM
TGI [5]: > 100 µM
TGI [6]: > 100 µM
TGI [7]: > 100 µM
TGI [8]: > 100 µM

COC(=O)c1c(-c2ccccc2)csc1NC(=O)c1c(-c2ccccc2)noc1C
GI50 [1]: 1.56 µM
TGI [1]: > 26.3 µM
GI50 [3]: 3.44 µM
TGI [3]: > 100 µM
GI50 [4]: 0.321 µM
TGI [4]: > 100 µM
GI50 [5]: 3.08 µM
TGI [5]: > 100 µM
GI50 [9]: 1.98 µM
TGI [9]: > 100 µM
GI50 [10]: 1.28 µM
TGI [10]: > 100 µM
GI50 [6]: 0.598 µM
TGI [6]: > 21.5 µM
GI50 [7]: 0.655 µM
TGI [7]: > 100 µM
GI50 [8]: 1.56 µM
TGI [8]: > 100 µM

— PubChem BioAssay (NCI)
